Among the data in patent US9340590B2 (priority 2011, dated 2016) are IC50 values, retold here.

What all share (experiment): cell-based
One experiment concerns the target hNav1.5 (Homo sapiens, UniProt Q14524). Conditions: Table 25; IonWorks Quattro, use; […]; read-out: IWQ Use Nav1.5. A general note: Patch clamp records ionic current or voltage across a cell membrane.
The target of another experiment is hNav1.7 (Homo sapiens, UniProt Q15858). Type of experiment: cell-based. To be noted: Table 25; IonWorks Quattro, use; […]; read-out: IWQ Use Nav1.7.
For another experiment, the target named is hNav1.3 (Homo sapiens, UniProt Q9NY46). Conditions: Table 25; IonWorks Quattro, use; […]; read-out: IWQ Use Nav1.3.

SMILES strings stand for the structures. Positions of bridges follow the written chain, without caps; N, C: chain ends. Non-standard residues stand in square brackets, D forms with d. Residues, ends and D or L forms follow the SMILES beside them. NMeW = CN[C@@H](Cc1c[nH]c2ccccc12)C(=O)O; NMeF = CN[C@@H](Cc1ccccc1)C(=O)O; Phg = N[C@H](C(=O)O)c1ccccc1

Chain of hNav1.7 (Q15858 whole entry, looked up): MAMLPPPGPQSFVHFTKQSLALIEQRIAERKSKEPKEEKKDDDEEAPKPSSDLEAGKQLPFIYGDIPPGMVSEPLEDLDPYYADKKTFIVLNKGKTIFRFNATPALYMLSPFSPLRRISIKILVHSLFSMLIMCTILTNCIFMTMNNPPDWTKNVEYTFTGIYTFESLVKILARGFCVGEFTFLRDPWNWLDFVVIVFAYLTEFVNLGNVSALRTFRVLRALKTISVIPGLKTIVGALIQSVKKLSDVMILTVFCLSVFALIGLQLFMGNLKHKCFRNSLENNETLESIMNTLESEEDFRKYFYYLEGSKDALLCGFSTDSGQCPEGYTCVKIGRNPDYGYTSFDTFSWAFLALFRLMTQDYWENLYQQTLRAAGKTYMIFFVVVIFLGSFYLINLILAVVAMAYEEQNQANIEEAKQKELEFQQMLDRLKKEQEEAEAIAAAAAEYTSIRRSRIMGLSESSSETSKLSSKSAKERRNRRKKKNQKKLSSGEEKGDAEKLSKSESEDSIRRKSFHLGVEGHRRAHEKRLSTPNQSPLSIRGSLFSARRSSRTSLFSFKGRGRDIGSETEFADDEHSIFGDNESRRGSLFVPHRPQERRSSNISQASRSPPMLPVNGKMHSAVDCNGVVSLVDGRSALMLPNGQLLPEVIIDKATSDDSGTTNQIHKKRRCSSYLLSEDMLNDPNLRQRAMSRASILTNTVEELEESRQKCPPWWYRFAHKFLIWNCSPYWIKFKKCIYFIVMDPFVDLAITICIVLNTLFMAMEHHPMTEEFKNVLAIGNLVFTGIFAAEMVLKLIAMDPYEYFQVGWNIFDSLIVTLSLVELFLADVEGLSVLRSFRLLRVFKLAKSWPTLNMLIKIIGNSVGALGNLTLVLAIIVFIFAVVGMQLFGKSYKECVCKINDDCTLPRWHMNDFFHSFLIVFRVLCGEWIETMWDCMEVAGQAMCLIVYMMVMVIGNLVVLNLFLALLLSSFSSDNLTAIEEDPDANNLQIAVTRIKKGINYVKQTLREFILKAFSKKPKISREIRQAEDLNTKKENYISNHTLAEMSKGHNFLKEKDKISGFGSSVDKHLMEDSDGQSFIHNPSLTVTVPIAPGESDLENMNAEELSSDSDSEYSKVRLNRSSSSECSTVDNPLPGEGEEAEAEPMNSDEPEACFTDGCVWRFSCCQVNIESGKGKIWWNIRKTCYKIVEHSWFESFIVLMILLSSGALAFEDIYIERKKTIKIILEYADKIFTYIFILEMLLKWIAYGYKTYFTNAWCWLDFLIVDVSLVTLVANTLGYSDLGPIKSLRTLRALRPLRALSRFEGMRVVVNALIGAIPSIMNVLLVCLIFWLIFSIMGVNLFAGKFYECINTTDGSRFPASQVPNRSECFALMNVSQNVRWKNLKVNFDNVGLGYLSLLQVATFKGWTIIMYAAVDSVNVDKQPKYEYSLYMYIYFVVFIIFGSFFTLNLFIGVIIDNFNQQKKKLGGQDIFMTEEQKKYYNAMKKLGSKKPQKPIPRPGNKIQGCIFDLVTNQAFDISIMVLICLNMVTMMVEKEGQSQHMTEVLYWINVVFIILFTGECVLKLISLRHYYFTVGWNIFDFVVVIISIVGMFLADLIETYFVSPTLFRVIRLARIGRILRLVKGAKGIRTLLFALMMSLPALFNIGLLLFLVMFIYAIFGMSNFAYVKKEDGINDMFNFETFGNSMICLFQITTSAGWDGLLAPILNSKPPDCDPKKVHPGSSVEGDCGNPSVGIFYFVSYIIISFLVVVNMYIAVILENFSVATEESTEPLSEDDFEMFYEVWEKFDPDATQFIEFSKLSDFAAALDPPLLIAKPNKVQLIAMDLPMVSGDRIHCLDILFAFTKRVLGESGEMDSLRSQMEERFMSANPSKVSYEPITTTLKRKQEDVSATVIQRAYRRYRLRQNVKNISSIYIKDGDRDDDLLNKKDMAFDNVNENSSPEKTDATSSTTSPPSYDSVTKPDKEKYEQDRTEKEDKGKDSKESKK
Chain of hNav1.5 (Q14524 whole entry, looked up): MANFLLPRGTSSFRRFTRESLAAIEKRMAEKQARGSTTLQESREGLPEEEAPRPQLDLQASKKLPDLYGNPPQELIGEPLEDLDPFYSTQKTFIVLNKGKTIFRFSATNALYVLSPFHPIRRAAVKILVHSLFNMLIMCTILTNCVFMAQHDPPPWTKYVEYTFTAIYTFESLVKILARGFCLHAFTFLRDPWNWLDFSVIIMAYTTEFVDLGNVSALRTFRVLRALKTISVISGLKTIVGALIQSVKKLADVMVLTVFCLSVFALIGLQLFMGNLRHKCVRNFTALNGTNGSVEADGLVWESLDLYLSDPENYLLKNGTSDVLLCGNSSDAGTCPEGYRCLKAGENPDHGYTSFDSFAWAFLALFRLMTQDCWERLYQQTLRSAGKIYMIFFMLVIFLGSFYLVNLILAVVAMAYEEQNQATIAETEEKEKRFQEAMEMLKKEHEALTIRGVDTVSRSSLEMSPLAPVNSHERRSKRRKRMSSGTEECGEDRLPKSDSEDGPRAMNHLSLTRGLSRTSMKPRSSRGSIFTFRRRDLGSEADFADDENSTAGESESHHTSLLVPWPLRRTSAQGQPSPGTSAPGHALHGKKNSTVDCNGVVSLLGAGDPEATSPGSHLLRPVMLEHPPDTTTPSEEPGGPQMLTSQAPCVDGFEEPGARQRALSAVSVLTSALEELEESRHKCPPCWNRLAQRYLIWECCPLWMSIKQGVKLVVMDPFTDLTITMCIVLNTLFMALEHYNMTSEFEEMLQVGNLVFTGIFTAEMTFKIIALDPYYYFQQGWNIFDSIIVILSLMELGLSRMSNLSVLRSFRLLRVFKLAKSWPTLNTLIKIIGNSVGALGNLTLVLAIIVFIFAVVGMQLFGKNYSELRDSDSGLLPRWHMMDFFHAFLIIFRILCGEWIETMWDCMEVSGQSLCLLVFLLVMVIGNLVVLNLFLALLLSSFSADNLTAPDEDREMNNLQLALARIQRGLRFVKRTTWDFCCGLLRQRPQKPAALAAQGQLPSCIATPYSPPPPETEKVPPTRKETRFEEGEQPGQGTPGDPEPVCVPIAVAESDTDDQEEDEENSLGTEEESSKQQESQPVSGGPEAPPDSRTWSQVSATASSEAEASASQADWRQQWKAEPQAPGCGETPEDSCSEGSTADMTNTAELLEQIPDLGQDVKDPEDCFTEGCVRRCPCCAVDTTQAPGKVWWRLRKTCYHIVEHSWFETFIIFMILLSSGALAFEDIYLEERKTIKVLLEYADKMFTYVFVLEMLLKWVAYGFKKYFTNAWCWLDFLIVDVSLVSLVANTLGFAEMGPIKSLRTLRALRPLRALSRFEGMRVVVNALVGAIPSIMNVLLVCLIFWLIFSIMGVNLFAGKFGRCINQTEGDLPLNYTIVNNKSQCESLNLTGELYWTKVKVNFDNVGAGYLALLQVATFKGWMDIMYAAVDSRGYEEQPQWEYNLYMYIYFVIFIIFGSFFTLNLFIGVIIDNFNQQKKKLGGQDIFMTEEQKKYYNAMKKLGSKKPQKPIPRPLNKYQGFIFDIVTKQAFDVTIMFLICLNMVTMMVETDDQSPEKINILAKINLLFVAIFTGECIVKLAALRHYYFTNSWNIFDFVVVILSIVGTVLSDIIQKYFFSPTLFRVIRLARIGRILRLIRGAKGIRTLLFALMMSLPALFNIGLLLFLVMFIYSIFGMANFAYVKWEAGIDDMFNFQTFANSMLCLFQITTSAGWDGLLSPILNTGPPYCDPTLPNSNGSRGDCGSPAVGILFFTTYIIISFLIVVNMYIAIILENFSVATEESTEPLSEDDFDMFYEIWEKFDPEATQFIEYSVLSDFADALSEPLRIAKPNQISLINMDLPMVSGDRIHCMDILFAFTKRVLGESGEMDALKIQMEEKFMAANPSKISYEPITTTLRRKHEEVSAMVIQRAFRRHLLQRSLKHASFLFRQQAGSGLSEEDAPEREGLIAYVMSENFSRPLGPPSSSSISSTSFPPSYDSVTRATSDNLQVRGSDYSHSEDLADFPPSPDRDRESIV

Consider `CC[C@H](C)[C@H](NC(=O)[C@H](CCCCN)NC(=O)[C@@H]1CSSC[C@@H]2NC(=O)[C@H](CCCCN)NC(=O)[C@H](CC(=O)O)NC(=O)[C@H](CC(N)=O)NC(=O)[C@H](CC(=O)O)NC(=O)[C@@H]3CCCN3C(=O)[C@H]([C@@H](C)CC)NC(=O)[C@@H]3CSSC[C@H](NC(=O)[C@H](C(C)C)NC(=O)[C@H](CC(C)C)NC(=O)[C@H](CC(N)=O)NC(=O)[C@@H]4CCCN4C(=O)[C@H](CCCNC(=N)N)NC(=O)[C@H](CSSC[C@H](NC(=O)[C@@H](N)CC(=O)O)C(=O)N[C@@H](CC(C)C)C(=O)NCC(=O)N[C@@H](Cc4ccccc4)C(=O)N[C@@H](CCSC)C(=O)N[C@@H](CCCNC(=N)N)C(=O)N[C@@H](CCCCN)C(=O)N3)NC2=O)C(=O)N[C@@H](CO)C(=O)N[C@@H](CCCNC(=N)N)C(=O)N[C@@H]([C@@H](C)O)C(=O)N[C@@H](Cc2c[nH]cn2)C(=O)N[C@@H](CCCCN)C(=O)N[C@@H](Cc2c[nH]c3ccccc23)C(=O)N1)C(=O)N[C@H](C(=O)N[C@@H](Cc1ccccc1)C(N)=O)C(C)C` [compound 367] (H-DCLGFMRKCIPDNDKCCRPNLVCSRTHKWCKIVF-NH2; disulfide 2-17, 9-23, 16-30), for which the results for the IC50 at hNav1.5, at hNav1.7 and on hNav1.3 were 8.71 µM, 0.07 µM and 0.06 µM, respectively.
The matching figures for `CC[C@H](C)[C@@H]1NC(=O)[C@@H]2CSSC[C@@H]3NC(=O)[C@H](C(C)C)NC(=O)[C@H](CC(C)C)NC(=O)[C@H](CC(N)=O)NC(=O)[C@@H]4CCCN4C(=O)[C@H](CCCNC(=N)N)NC(=O)[C@H](CSSC[C@H](NC(=O)[C@@H](N)CC(=O)O)C(=O)N[C@@H](CC(C)C)C(=O)NCC(=O)N[C@@H](Cc4ccccc4)C(=O)N[C@@H](CCSC)C(=O)N[C@@H](CCCNC(=N)N)C(=O)N[C@@H](CCCCN)C(=O)N2)NC(=O)[C@H](CSSC[C@@H](C(=O)N[C@@H](CCCCN)C(=O)N[C@@H](CCSC)C(=O)N[C@H](C(=O)N[C@@H](Cc2ccccc2)C(N)=O)C(C)C)NC(=O)[C@H](Cc2c[nH]c4ccccc24)NC(=O)[C@H](CCCCN)NC(=O)[C@H](Cc2c[nH]cn2)NC(=O)[C@H]([C@@H](C)O)NC(=O)[C@H](CCCNC(=N)N)NC(=O)[C@H](CO)NC3=O)NC(=O)[C@H](CCCCN)NC(=O)[C@H](CC(=O)O)NC(=O)[C@H](CC(N)=O)NC(=O)[C@H](CC(=O)O)NC(=O)[C@@H]2CCCN2C1=O` [compound 368] (H-DCLGFMRKCIPDNDKCCRPNLVCSRTHKWCKMVF-NH2; disulfide 2-17, 9-23, 16-30): 6.21 µM, 0.35 µM and 0.14 µM.
On the same counts, the results for `CC[C@H](C)[C@@H]1NC(=O)[C@@H]2CSSC[C@@H]3NC(=O)[C@H](C(C)C)NC(=O)[C@H](CC(C)C)NC(=O)[C@H](CC(N)=O)NC(=O)[C@@H]4CCCN4C(=O)[C@H](CCCNC(=N)N)NC(=O)[C@H](CSSC[C@H](NC(=O)[C@@H](N)CC(=O)O)C(=O)N[C@@H](CC(C)C)C(=O)NCC(=O)N[C@@H](Cc4ccccc4)C(=O)N[C@@H](CCSC)C(=O)N[C@@H](CCCNC(=N)N)C(=O)N[C@@H](CCCCN)C(=O)N2)NC(=O)[C@H](CSSC[C@@H](C(=O)N[C@@H](CCCCN)C(=O)N[C@H](C(=O)N[C@H](C(=O)N[C@@H](Cc2ccccc2)C(N)=O)C(C)C)[C@@H](C)O)NC(=O)[C@H](Cc2c[nH]c4ccccc24)NC(=O)[C@H](CCCCN)NC(=O)[C@H](Cc2c[nH]cn2)NC(=O)[C@H]([C@@H](C)O)NC(=O)[C@H](CCCNC(=N)N)NC(=O)[C@H](CO)NC3=O)NC(=O)[C@H](CCCCN)NC(=O)[C@H](CC(=O)O)NC(=O)[C@H](CC(N)=O)NC(=O)[C@H](CC(=O)O)NC(=O)[C@@H]2CCCN2C1=O` [compound 369] (H-DCLGFMRKCIPDNDKCCRPNLVCSRTHKWCKTVF-NH2; disulfide 2-17, 9-23, 16-30) are 11.1 µM, 3.54 µM and 3.29 µM.
On the same counts, the results for `CC[C@H](C)[C@@H]1NC(=O)[C@@H]2CSSC[C@@H]3NC(=O)[C@H](C(C)C)NC(=O)[C@H](CC(C)C)NC(=O)[C@H](CC(N)=O)NC(=O)[C@@H]4CCCN4C(=O)[C@H](CCCNC(=N)N)NC(=O)[C@H](CSSC[C@H](NC(=O)[C@@H](N)CC(=O)O)C(=O)N[C@@H](CC(C)C)C(=O)NCC(=O)N[C@@H](Cc4ccccc4)C(=O)N[C@@H](CCSC)C(=O)N[C@@H](CCCNC(=N)N)C(=O)N[C@@H](CCCCN)C(=O)N2)NC(=O)[C@H](CSSC[C@@H](C(=O)N[C@@H](CCCCN)C(=O)N(C)[C@@H](Cc2ccccc2)C(=O)N[C@H](C(=O)N[C@@H](Cc2ccccc2)C(N)=O)C(C)C)NC(=O)[C@H](Cc2c[nH]c4ccccc24)NC(=O)[C@H](CCCCN)NC(=O)[C@H](Cc2c[nH]cn2)NC(=O)[C@H]([C@@H](C)O)NC(=O)[C@H](CCCNC(=N)N)NC(=O)[C@H](CO)NC3=O)NC(=O)[C@H](CCCCN)NC(=O)[C@H](CC(=O)O)NC(=O)[C@H](CC(N)=O)NC(=O)[C@H](CC(=O)O)NC(=O)[C@@H]2CCCN2C1=O` [compound 370] (H-DCLGFMRKCIPDNDKCCRPNLVCSRTHKWCK[NMeF]VF-NH2; disulfide 2-17, 9-23, 16-30) are greater than 5 µM, greater than 5 µM and greater than 5 µM.
For the molecule `CC[C@H](C)[C@@H]1NC(=O)[C@@H]2CSSC[C@@H]3NC(=O)[C@H](C(C)C)NC(=O)[C@H](CC(C)C)NC(=O)[C@H](CC(N)=O)NC(=O)[C@@H]4CCCN4C(=O)[C@H](CCCNC(=N)N)NC(=O)[C@H](CSSC[C@H](NC(=O)[C@@H](N)CC(=O)O)C(=O)N[C@@H](CC(C)C)C(=O)NCC(=O)N[C@@H](Cc4ccccc4)C(=O)N[C@@H](CCSC)C(=O)N[C@@H](CCCNC(=N)N)C(=O)N[C@@H](CCCCN)C(=O)N2)NC(=O)[C@H](CSSC[C@@H](C(=O)N[C@@H](CCCCN)C(=O)N(C)[C@@H](Cc2c[nH]c4ccccc24)C(=O)N[C@H](C(=O)N[C@@H](Cc2ccccc2)C(N)=O)C(C)C)NC(=O)[C@H](Cc2c[nH]c4ccccc24)NC(=O)[C@H](CCCCN)NC(=O)[C@H](Cc2c[nH]cn2)NC(=O)[C@H]([C@@H](C)O)NC(=O)[C@H](CCCNC(=N)N)NC(=O)[C@H](CO)NC3=O)NC(=O)[C@H](CCCCN)NC(=O)[C@H](CC(=O)O)NC(=O)[C@H](CC(N)=O)NC(=O)[C@H](CC(=O)O)NC(=O)[C@@H]2CCCN2C1=O` [compound 371] (H-DCLGFMRKCIPDNDKCCRPNLVCSRTHKWCK[NMeW]VF-NH2; disulfide 2-17, 9-23, 16-30), the IC50 on hNav1.5 is greater than 5 µM; on hNav1.7 it was 4.88 µM; on hNav1.3 it was greater than 5 µM.
As for `CC[C@H](C)[C@@H]1NC(=O)[C@@H]2CSSC[C@@H]3NC(=O)[C@H](C(C)C)NC(=O)[C@H](CC(C)C)NC(=O)[C@H](CC(N)=O)NC(=O)[C@@H]4CCCN4C(=O)[C@H](CCCNC(=N)N)NC(=O)[C@H](CSSC[C@H](NC(=O)[C@@H](N)CC(=O)O)C(=O)N[C@@H](CC(C)C)C(=O)NCC(=O)N[C@@H](Cc4ccccc4)C(=O)N[C@@H](CCSC)C(=O)N[C@@H](CCCNC(=N)N)C(=O)N[C@@H](CCCCN)C(=O)N2)NC(=O)[C@H](CSSC[C@@H](C(=O)N[C@@H](CCCCN)C(=O)N[C@H](C(=O)N[C@H](C(=O)N[C@@H](Cc2ccccc2)C(N)=O)C(C)C)C(C)C)NC(=O)[C@H](Cc2c[nH]c4ccccc24)NC(=O)[C@H](CCCCN)NC(=O)[C@H](Cc2c[nH]cn2)NC(=O)[C@H]([C@@H](C)O)NC(=O)[C@H](CCCNC(=N)N)NC(=O)[C@H](CO)NC3=O)NC(=O)[C@H](CCCCN)NC(=O)[C@H](CC(=O)O)NC(=O)[C@H](CC(N)=O)NC(=O)[C@H](CC(=O)O)NC(=O)[C@@H]2CCCN2C1=O` [compound 372] (H-DCLGFMRKCIPDNDKCCRPNLVCSRTHKWCKVVF-NH2; disulfide 2-17, 9-23, 16-30), the IC50 at hNav1.5 was 14.8 µM; on hNav1.7, 0.15 µM; at hNav1.3, 0.08 µM.
For the molecule `CC[C@H](C)[C@@H]1NC(=O)[C@@H]2CSSC[C@@H]3NC(=O)[C@H](C(C)C)NC(=O)[C@H](CC(C)C)NC(=O)[C@H](CC(N)=O)NC(=O)[C@@H]4CCCN4C(=O)[C@H](CCCNC(=N)N)NC(=O)[C@H](CSSC[C@H](NC(=O)[C@@H](N)CC(=O)O)C(=O)N[C@@H](CC(C)C)C(=O)NCC(=O)N[C@@H](Cc4ccccc4)C(=O)N[C@@H](CCSC)C(=O)N[C@@H](CCCNC(=N)N)C(=O)N[C@@H](CCCCN)C(=O)N2)NC(=O)[C@H](CSSC[C@@H](C(=O)N[C@@H](CCCCN)C(=O)N[C@@H](CC(C)C)C(=O)N[C@H](C(=O)N[C@@H](Cc2ccccc2)C(N)=O)C(C)C)NC(=O)[C@H](Cc2c[nH]c4ccccc24)NC(=O)[C@H](CCCCN)NC(=O)[C@H](Cc2c[nH]cn2)NC(=O)[C@H]([C@@H](C)O)NC(=O)[C@H](CCCNC(=N)N)NC(=O)[C@H](CO)NC3=O)NC(=O)[C@H](CCCCN)NC(=O)[C@H](CC(=O)O)NC(=O)[C@H](CC(N)=O)NC(=O)[C@H](CC(=O)O)NC(=O)[C@@H]2CCCN2C1=O` [compound 373] (H-DCLGFMRKCIPDNDKCCRPNLVCSRTHKWCKLVF-NH2; disulfide 2-17, 9-23, 16-30), the results for the IC50 at hNav1.5, on hNav1.7 and at hNav1.3 were 8.83 µM, 0.12 µM and 0.08 µM, respectively.
On the same counts, the results for `CC[C@H](C)[C@@H]1NC(=O)[C@@H]2CSSC[C@@H]3NC(=O)[C@H](C(C)C)NC(=O)[C@H](CC(C)C)NC(=O)[C@H](CC(N)=O)NC(=O)[C@@H]4CCCN4C(=O)[C@H](CCCNC(=N)N)NC(=O)[C@H](CSSC[C@H](NC(=O)[C@@H](N)CC(=O)O)C(=O)N[C@@H](CC(C)C)C(=O)NCC(=O)N[C@@H](Cc4ccccc4)C(=O)N[C@@H](CCSC)C(=O)N[C@@H](CCCNC(=N)N)C(=O)N[C@@H](CCCCN)C(=O)N2)NC(=O)[C@H](CSSC[C@@H](C(=O)N[C@@H](CCCCN)C(=O)N[C@H](C(=O)N[C@H](C(=O)N[C@@H](Cc2ccccc2)C(N)=O)C(C)C)c2ccccc2)NC(=O)[C@H](Cc2c[nH]c4ccccc24)NC(=O)[C@H](CCCCN)NC(=O)[C@H](Cc2c[nH]cn2)NC(=O)[C@H]([C@@H](C)O)NC(=O)[C@H](CCCNC(=N)N)NC(=O)[C@H](CO)NC3=O)NC(=O)[C@H](CCCCN)NC(=O)[C@H](CC(=O)O)NC(=O)[C@H](CC(N)=O)NC(=O)[C@H](CC(=O)O)NC(=O)[C@@H]2CCCN2C1=O` [compound 374] (H-DCLGFMRKCIPDNDKCCRPNLVCSRTHKWCK[Phg]VF-NH2; disulfide 2-17, 9-23, 16-30) are 7.06 µM, 0.14 µM and 0.1 µM.
